Reference: ChEMBL document CHEMBL1145559, “Design, synthesis and in vitro antiprotozoal activity of benzimidazole-pentamidine hybrids” (Bioorg Med Chem Lett, 2008)
Activity calls are given as the source filed them. The rule behind the calls is not given here.

Key:
Leishmania mexicana = experiment: Antiprotozoal activity against Leishmania mexicana; format: functional, organism-based
Plasmodium berghei [1] = experiment: Antiprotozoal activity against Plasmodium berghei; format: functional, organism-based
Giardia intestinalis = experiment: Antiprotozoal activity against Giardia lamblia; format: functional, organism-based; conditions: Giardia duodenalis
Trichomonas vaginalis = experiment: Antiprotozoal activity against Trichomonas vaginalis; format: functional, organism-based
Plasmodium berghei [2] = experiment: Antiprotozoal activity against Plasmodium berghei at 100 uM; format: functional
Entamoeba histolytica = experiment: Antiprotozoal activity against Entamoeba histolytica; format: functional, organism-based
Plasmodium berghei [3] = experiment: Antiprotozoal activity as cell damage against Plasmodium berghei; format: functional, organism-based

Row | SMILES | IC50 (Leishmania mexicana) [µM] | IC50 (Plasmodium berghei [1]) [µM] | IC50 (Giardia intestinalis) [µM] | IC50 (Trichomonas vaginalis) [µM] | IC50 (Entamoeba histolytica) [µM] | inhibition at 100 µM (Plasmodium berghei [2]) [%] | Activity (Plasmodium berghei [2]) | Activity (Plasmodium berghei [3])
1 | COc1cc(-c2nc3cc(C(F)(F)F)ccc3[nH]2)ccc1OCCCCCOc1ccc(-c2nc3cc(C(F)(F)F)ccc3[nH]2)cc1OC | > 50 | 63.1 |  |  |  |  |  | 
2 | Cc1ccc2[nH]c(-c3ccc(OCCCCCOc4ccc(-c5nc6cc(C)ccc6[nH]5)cc4)cc3)nc2c1 | 0.368 | 100 | 4.89 | 4.16 | 0.153 | 43 |  | 
3 | FC(F)(F)c1ccc2[nH]c(-c3ccc(OCCCCCOc4ccc(-c5nc6cc(C(F)(F)F)ccc6[nH]5)cc4)cc3)nc2c1 | > 50 | 6.53 | 9.6 | 4.96 | 7.29 |  |  | 
4 | COc1cc(-c2nc3cc([N+](=O)[O-])ccc3[nH]2)ccc1OCCCCCOc1ccc(-c2nc3cc([N+](=O)[O-])ccc3[nH]2)cc1OC | 16.8 | 25.9 | 3.4 | 0.794 | 12.1 |  |  | 
5 | N=C(N)c1ccc(OCCCCCOc2ccc(C(=N)N)cc2)cc1 [PENTAMIDINE] | 9.57 |  | 4.08 | 3.81 | 11.8 |  |  | Active
6 | c1ccc2[nH]c(-c3ccc(OCCCCCOc4ccc(-c5nc6ccccc6[nH]5)cc4)cc3)nc2c1 | 1.06 | 100 | 1.84 | 3.18 | 0.436 | 37 |  | 
7 | O=[N+]([O-])c1ccc2[nH]c(-c3ccc(OCCCCCOc4ccc(-c5nc6cc([N+](=O)[O-])ccc6[nH]5)cc4)cc3)nc2c1 | > 50 | 100 | 7.41 | 3.58 | 10.2 | 46 |  | 

Now from value to compound, other results behind:

Row | IC50 (Leishmania mexicana) [µM] | IC50 (Plasmodium berghei [1]) [µM] | IC50 (Giardia intestinalis) [µM] | IC50 (Trichomonas vaginalis) [µM] | IC50 (Entamoeba histolytica) [µM] | SMILES | inhibition at 100 µM (Plasmodium berghei [2]) [%] | Activity (Plasmodium berghei [2]) | Activity (Plasmodium berghei [3])
8 | > 50 |  | 0.372 | 1.02 | 4.5 | COc1cc(-c2nc3cc(C)ccc3[nH]2)ccc1OCCCCCOc1ccc(-c2nc3cc(C)ccc3[nH]2)cc1OC |  | inactive | 
9 | > 50 | 24 | 5.19 | 6.29 | 0.284 | COc1ccc2[nH]c(-c3ccc(OCCCCCOc4ccc(-c5nc6cc(OC)ccc6[nH]5)cc4OC)c(OC)c3)nc2c1 |  |  | 
10 | 0.712 | 34.6 | 0.435 | 0.164 | 0.109 | COc1ccc2[nH]c(-c3ccc(OCCCCCOc4ccc(-c5nc6cc(OC)ccc6[nH]5)cc4)cc3)nc2c1 |  |  | 
11 |  |  | 1.29 | 0.286 | 0.771 | Cc1ncc([N+](=O)[O-])n1CCO [METRONIDAZOLE] |  |  | 
12 | > 50 | 166 | 12.7 | 6.15 | 5.19 | COc1cc(-c2nc3ccccc3[nH]2)ccc1OCCCCCOc1ccc(-c2nc3ccccc3[nH]2)cc1OC |  |  | 
